# Measured values from ChEMBL document CHEMBL1145078, “Discovery and preclinical characterization of (+)-3-[4-(1- piperidinoethoxy)phenyl]spiro[indene- 1,1'-indane]-5,5'-diol hydrochloride: a promising nonsteroidal estrogen receptor agonist for hot flush” (J Med Chem, 2003).
# Species on record: Rattus norvegicus
# Assay: Dose required to prevent loss of total bone mineral density of rat distal femur
# Type: functional
compound,measurement,value
"Cl.Oc1ccc2c(c1)CCC21C=C(c2ccc(OCCN3CCCCC3)cc2)c2cc(O)ccc21 (single isomer, unassigned; (+))",Dose,0.1 mg/kg/day
